Tests used:
[1] = tested on: activated fibroblast phenotype (fibronectin, YAP, TAZ, smooth muscle actin); experiment: Western blot of activated fibroblast markers (FN, YAP, TAZ, SMA) in MRC-5 lung fibroblasts induced by growth factors; format: cell-based, human
Protocol: FIG. 10C: MRC-5 lung fibroblast cells were serum-starved 24 hours then treated with 10 ng/mL TGF-β in serum-free media for 24 hours with or without verteporfin at the indicated concentration. FN: fibronectin, YAP: yes-activated protein, TAZ: transcriptional coactivator with PDZ-binding motif, and SMA(ACTA2): smooth muscle actin. Representative western blot is shown (n=3).
FIG. […] T.F.8: combination TGF, FGF, IL8. […] FN: fibronectin, YAP: yes-activated protein, TAZ: transcriptional coactivator with PDZ-binding motif, and SMA(ACTA2): smooth muscle actin. Representative western blot is shown (n=2).

[2] = tested on: TGF-β-induced fibronectin; details: MRC-5, 10 ng/mL TGF-β, 24 hours, low concentrations alone or in combination
Protocol: (§1) FIGS. 13A-13C: MRC-5 lung fibroblast cells were serum-starved 24 hours then treated with or without 10 ng/mL TGF-β for 24 hours (T-24 hr). […] FN: fibronectin, YAP: yes-activated protein, TAZ: transcriptional coactivator with PDZ-binding motif, and SMA(ACTA2): smooth muscle actin. Representative western blot is shown (n=2). […] Cells were fixed in −20C methanol for 15 minutes and immunolabeled for fibronectin. Cellomics arrayscan imaging was performed and staining intensity was quantified and analyzed for fibronectin expression on a per cell basis.
(§2) Turning now to FIGS. 13A-13E, in a clinical setting, it would be advantageous for the efficacy of the therapeutics that the activated fibroblasts be reversed to a quiescent state upon treatment. […] To test the combinations, the inventors obtained quantitative analysis of fibronectin staining in fibroblasts upon treatment with TGF-β in the presence or absence of drug combinations.

[3] = tested on: activated fibroblast phenotype; details: MRC-5 pre-activated with 10 ng/mL TGF-β 24 hours, then 24 hours treatment
Protocol: as §1, §2

WPMY-1 cells = experiment: Viability / metabolic activity assay on WPMY-1 cells; details: WPMY-1, compound at its IC50, up to 48 hours, 1% FBS DMEM, vs DMSO control
Protocol: Metabolically viable cells (indicated by bar; left y-axis) are indicated by fluorescent intensity (560/590 nm).
Cardiac glycosides have been shown previously to inhibit cell growth in a variety of cell types, in order to determine whether cardiac glycosides inhibited TGE-β-induced fibronectin expression by affecting metabolic activity, viability assays were performed on WPMY-1 cells over 48 hours in 1% FBS DMEM.

[4] = tested on: TGF-β-induced fibronectin; experiment: High content imaging (Cellomics) screen for inhibitors of fibronectin induction by TGF-beta in WPMY-1 cells; format: cell-based, human
Protocol: Inhibitors of CAF Differentiation. A. WPMY-1 cells were plated into each well of 4-chamber slice (for IF), or (C) in a 24 well plate (for western blot analysis). After cell attachment, vehicle or 5 ng/ml TGF-β was added into each well and incubated for 24 h in a 37° C. in a humidified incubator containing 5% CO2. For fluorescence detection (A), cells were fixed and stained with antibody detecting fibronectin and/or stained with DAPI to detect the nuclei. Protein was extracted with boiling Lamaelli buffer for WB (C) and blots were probed with anti-fibronectin or anti-tubulin antibodies. Fibronectin fluorescence (D and E) was measured in the presence or absence of TGF-β in 8 well replicates as follows. Cells were conditioned in serum-free DMEM for 48 hr prior to the addition of TGF-β. Images were acquired using a Cellomics platform with a mask shown in the schematic of (B). The mean of the total fluorescence intensity in each well was calculated from 300 cells per image field and up to 15 fields from each well for fibronectin. […]
FIGS. 4A-4H: Dose response for identified hits. As shown in the four panels of FIG. 4A, fibronectin fluorescence was measured from images acquired following a Cellomics scan using WPMY-1 cells with concentrations of hits over a range of 0-100 uM. […] Results were expressed as percent inhibition caused by cells treated with TGF-β alone and without testing compound, which was considered as 100%. […]
FIGS. 14-15 show Table I—Prestwick Library and Table II—NIH Library chemicals respectively. […] A “hit” was defined as a compound causing at least 50% reduction of “Mean_RingTotal Intensity”, which is the fluorescence intensity within the defined ring (see FIG. 2) surrounding nucleus of each cell, summed for 300 cells per image and 15 fields per image. The solvent, 0.1% Dimethyl Sulfoxide (DMSO), with and without TGF-beta served as an internal control on each plate to normalize day-to-day and plate-to-plate variation with DMSO alone as low fluorescence (0%) and TGF-β treated as maximal fluorescence (100%). […]

[5] = tested on: TGF-β-induced fibronectin expression; experiment: Western blot of TGF-β-induced fibronectin expression in WPMY-1 fibroblasts; format: cell-based, human; details: for TGF-β-induced fibronectin expression, intracellular Ca2+ modulators (western blot): WPMY-1, 2.5-10 μM, 5 ng/ml TGF-β, 24 hours
Protocol: Inhibitors of CAF Differentiation. A. WPMY-1 cells were plated into each well of 4-chamber slice (for IF), or (C) in a 24 well plate (for western blot analysis). After cell attachment, vehicle or 5 ng/ml TGF-β was added into each well and incubated for 24 h in a 37° C. in a humidified incubator containing 5% CO2. For fluorescence detection (A), cells were fixed and stained with antibody detecting fibronectin and/or stained with DAPI to detect the nuclei. Protein was extracted with boiling Lamaelli buffer for WB (C) and blots were probed with anti-fibronectin or anti-tubulin antibodies. Fibronectin fluorescence (D and E) was measured in the presence or absence of TGF-β in 8 well replicates as follows. Cells were conditioned in serum-free DMEM for 48 hr prior to the addition of TGF-β. Images were acquired using a Cellomics platform with a mask shown in the schematic of (B). The mean of the total fluorescence intensity in each well was calculated from 300 cells per image field and up to 15 fields from each well for fibronectin. The fold change in fibronectin expression per acquired image (nuclei) is shown (Mean+/−SD).
Panel A1 is the control, Panel A2 is the TGF-β treated wells and Panel A3 is TGF-β plus PsA at 5 micromolar. Images were captured using the Cellomics imaging system.
Representative blots are shown with two exposures of fibronectin to account for strong signal intensity. n=3.
FIGS. 9A-9B: Increases in intracellular Ca^2+ prevent TGF-β-induced fibronectin expression. (A) WPMY-1 fibroblasts were treated with 2.5 μM thapsigargin±5 ng/ml TGF-β for 24 hours. (B) WPMY-1 fibroblasts were treated with 2.5-10 μM 3′,4′-dichlorobenzamil hydrochloride (DCB)±5 ng/ml TGF-β for 24 hours. Cell lysates were analyzed by western blot for fibronectin expression.
Because of the observed low nanomolar effective concentration of the cardiac glycosides, the inventors hypothesized that the cardiac glycosides may be acting by binding to their high affinity target, the Na^+/K^+ ATPase, and that action through the ATPase is the mechanism by which the cardiac glycosides are able to block TGF-β-induced fibronectin expression. It is well documented that inhibition of the Na^+/K^+ ATPase by digoxin leads to increases in intracellular Ca^2+ by preventing Ca^2+ efflux through the Na^+/Ca^2+ exchanger. In order to determine if increased intracellular Ca^2+ is sufficient to prevent TGF-β-induced fibronectin expression, the inventors utilized two compounds that increase intracellular Ca^2+ concentrations. 3′,4′-dichlorobenzamil hydrochloride (DCB) inhibits the Na^+/Ca^2+ exchanger, Na^+ transport, and sarcoplasmic reticulum Ca^2+ release channels. Thapsigargin inhibits the endoplasmic reticulum Ca^+ ATPase, preventing storage of Ca^2+ in the endoplasmic reticulurn, causing an accumulation in the cytoplasm. Cells were treated with 2.5-10 μM of DCB or thapsigargin±TGF-β for 24 hours.

Cc1cc(/C=C/c2ccc3cc(N(C)C)ccc3[n+]2C)c(C)n1-c1ccccc1 [pyrvinium]
activated fibroblast phenotype induced by TGF-β and FGF (fibronectin, YAP, TAZ, smooth muscle actin) ([1]; MRC-5, 10 ng/mL TGF-β and 20 ng/ml FGF, 24 hours): able to prevent the activated fibroblast phenotype
activated fibroblast phenotype upon TGF-β and FGF, compared with nintedanib ([1]; MRC-5, 10 ng/mL TGF-β and 20 ng/ml FGF, 24 hours, nintedanib 200 nM): able to block the activated fibroblast phenotype better than nintedanib
fibroblast activation from a combination of growth factors (TGF, FGF, IL8) ([1]; MRC-5, 10 ng/mL TGF-β, 20 ng/mL FGF, 20 ng/mL IL-8, digoxin 250 nM, pyrvinium 500 nM vs pirfenidone 500 μm, nintedanib 250 nM): able to block fibroblast activation from a combination of growth factors better than pirfenidone or nintedanib
fibronectin staining intensity per cell (Cellomics arrayscan) [2]: the levels of fibronectin are reduced
reversal of activated fibroblast phenotype (fibronectin, TAZ, smooth muscle actin) [3]: revert fibroblasts to the quiescent state

C[C@@H]1O[C@@H](O[C@H]2C[C@@H](O)[C@]3(CO)[C@H]4[C@H](O)C[C@]5(C)[C@@H](C6=CC(=O)OC6)CC[C@]5(O)[C@@H]4CC[C@]3(O)C2)[C@H](O)[C@H](O)[C@H]1O [ouabain]
cell viability / metabolic activity (WPMY-1 cells): no effect on cell viability

C[C@@H]1O[C@@H](O[C@@H]2C=C3CC[C@@H]4[C@H](CC[C@]5(C)[C@@H](c6ccc(=O)oc6)CC[C@]45O)[C@@]3(C)CC2)[C@H](O)[C@H](O)[C@H]1O [Proscillaridin A]
IC50 / potency for inhibition of TGF-β-induced fibronectin (dose response) ([4]; WPMY-1, 0-100 uM, TGF-β 24 hour): lowest IC50
inhibition of fibronectin induction, Cellomics based image analysis ([4]; WPMY-1, TGF-β plus PsA at 5 micromolar): potent inhibitor of fibronectin induction
cell viability / metabolic activity (WPMY-1 cells): toxic to cells
cell viability / metabolic activity (WPMY-1 cells; listed as proscillaridin A): decreased metabolic activity
inhibition of fibronectin induction, western blot ([5]; WPMY-1, TGF-β, dose range of PsA): inhibits induction of fibronectin even a low nanomolar concentrations

COC(=O)c1ccc2c(c1)NC(=O)/C2=C(\Nc1ccc(N(C)C(=O)CN2CCN(C)CC2)cc1)c1ccccc1 [nintedanib]
FGF signaling (TAZ upregulation) ([1]; MRC-5, 10 ng/mL FGF, nintedanib 200 nM, 24 hours): blocks FGF signaling
induction of activated fibroblast markers by TGF-β ([1]; MRC-5, 10 ng/mL TGF-β, nintedanib 200 nM, 24 hours): does not bock induction by TGF-β

CC(=O)O[C@H]1C[C@H](O[C@H]2[C@@H](O)C[C@H](O[C@H]3[C@@H](O)C[C@H](O[C@H]4CC[C@@]5(C)[C@H](CC[C@@H]6[C@@H]5C[C@@H](O)[C@]5(C)[C@@H](C7=CC(=O)OC7)CC[C@]65O)C4)O[C@@H]3C)O[C@@H]2C)O[C@H](C)[C@H]1O[C@@H]1O[C@H](CO)[C@@H](O)[C@H](O)[C@H]1O [lanatoside C]
cell viability / metabolic activity (WPMY-1 cells): no effect on cell viability

C/C=C(/C)C(=O)O[C@H]1C(C)=C2[C@H]([C@@H]1OC(=O)CCCCCCC)[C@@](C)(OC(C)=O)C[C@H](OC(=O)CCC)[C@@]1(O)[C@H]2OC(=O)[C@@]1(C)O [thapsigargin]
TGF-β-induced fibronectin expression, intracellular Ca2+ modulators (western blot) [5]: able to prevent TGF-β-induced fibronectin expression in a dose-dependent manner

verteporfin
TAZ levels ([1]; MRC-5, 10 ng/mL TGF-β, 24 hours): not reduced
induction of fibronectin, YAP, TAZ, smooth muscle actin by TGF-β ([1]; MRC-5, 10 ng/mL TGF-β, serum-free, 24 hours, dose escalation): represses TGF-β induced fibronectin and smooth muscle actin expression

CC(=O)OCOC(=O)CN(CC(=O)OCOC(C)=O)c1ccccc1OCCOc1ccccc1N(CC(=O)OCOC(C)=O)CC(=O)OCOC(C)=O [BAPTA-AM, Glycine, N,N′-[1,2-ethanediylbis(oxy-2,1-phenylene)]bis[N-[2-[(acetyloxy)methoxy]-2-oxoethyl]]-, bis[(acetyloxy)methyl] ester]
TGF-β-induced fibronectin expression, intracellular Ca2+ modulators (western blot) [5]: no effect on TGF-β-induced fibronectin expression

Cl.NC(=NCc1ccc(Cl)c(Cl)c1)NC(=O)c1nc(Cl)c(N)nc1N [DCB, 3′,4′-dichlorobenzamil hydrochloride]
TGF-β-induced fibronectin expression, intracellular Ca2+ modulators (western blot) [5]: able to prevent TGF-β-induced fibronectin expression in a dose-dependent manner

Reference: patent publication US11096952B2, “Chemicals and methods to prevent and treat TGF-beta mediated activation of fibroblasts to reduce and treat cancer and fibrosis” (Board of Supervisors of Louisiana State University and …, priority 2016, dated 2021)
